This experiment has as its target T1, human CRTH2 receptor (Homo sapiens, UniProt Q9Y5Y4).
T1 construct: host or cells: CHO-K1 (CHO-K1-hCRTH2 cells); membranes prepared in house from the purchased cell line
T1 sequence (Q9Y5Y4 1-395): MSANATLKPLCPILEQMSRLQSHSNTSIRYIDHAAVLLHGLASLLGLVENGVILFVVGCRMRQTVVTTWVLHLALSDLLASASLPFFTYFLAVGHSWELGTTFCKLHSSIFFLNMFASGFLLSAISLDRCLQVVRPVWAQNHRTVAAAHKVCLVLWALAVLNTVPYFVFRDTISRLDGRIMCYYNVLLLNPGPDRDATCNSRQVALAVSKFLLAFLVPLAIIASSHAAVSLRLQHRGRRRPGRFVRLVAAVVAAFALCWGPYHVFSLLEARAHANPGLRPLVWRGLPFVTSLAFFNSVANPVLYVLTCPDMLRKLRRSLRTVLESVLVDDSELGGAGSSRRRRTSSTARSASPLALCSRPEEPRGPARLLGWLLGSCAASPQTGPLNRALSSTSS
In words: Human CRTH2 receptor membrane radioligand binding assay (SPA, [3H]-PGD2). To be noted: displacement of [3H]-PGD2 (1 nM) from CHO-K1-hCRTH2 cell membranes, 3 h room temperature. The protocol: Preparation of Human CRTH2 Receptor Membranes and Radioligand Binding Assay
The binding of CRTH2 antagonists is determined using membranes prepared from Chinese hamster ovary cells (CHO-K1 cells) transfected with the human CRTH2 receptor (CHO-K1-hCRTH2 cells, Perkin Elmer, Cat No ES-561-C). To produce cell membranes the CHO-K1-hCRTH2 cells are cultured in suspension in CHO SFMII medium supplemented with 400 μg/ml G418. The cells are harvested by centrifugation at 300 g for 10 min at room temperature. The cell pellet is resuspended in Phosphate Buffer Saline (PBS) including a protease inhibitor mix (Complete, Roche) and adjusted to a concentration of 10E7 cells/ml. The CHO-K1-hCRTH2 cells are disrupted by nitrogen […] to obtain the membrane preparation. Cell debris is removed by centrifugation (500 g at 4° C., 30 min) and the supernatant is transferred into fresh tubes followed by a second centrifugation at 40000 g for 1 h at 4° C. to sediment the membranes. The membranes are suspended in SPA incubation buffer (50 mM Tris HCl, 10 mM MgCl2, 150 mM NaCl, 1 mM EDTA, pH 7.4) without bovine serum albumin, homogenized by passing through a single use needle (Terumo, 23G×1″), and stored in aliquots at −80° C.
The CRTH2 receptor binding assay is performed in a scintillation proximity assay (SPA) format with the radioligand [^3H]-PGD2 (Perkin Elmer, NET616000MC). CHO-K1-hCRTH2 cell membranes are again homogenized by passing through a single use needle (Terumo, 23G×1″) and diluted in SPA incubation buffer in suitable concentrations (0.5-10 μg protein/well). The SPA assay is set up in 96 well microtiter plates (Perkin Elmer, CatNo. 6005040) in SPA incubation buffer with a final volume of 200 μl per well and final concentration of 50 mM Tris-HCl, 10 mM MgCl2, 150 mM NaCl, 1 mM EDTA pH 7.4, 0.1% bovine serum albumin). The SPA assay mixture contains 60 μl of the membrane suspension, 80 μl of Wheat Germ Agglutinin coated PVT beads (GE Healthcare, RPNQ-0001, 0.3 mg/well), 40 μl of [3H]-PGD2 diluted in SPA buffer to a final concentration of 1 nM (50 000 dpm) and 20 μl of the test compound (dissolved in dimethylsulfoxid). The SPA assay mixture is incubated for 3 h at room temperature. Bound radioactivity is determined with a scintillation counter (Micro Beta Trilux, Wallac).
The binding of [^3H]-PGD2 to CHO-K1-hCRTH2 cell membranes is determined in the absence (total binding, Bo) and presence (non-specific binding, NSB) of unlabelled PGD2 (1 μM, Cayman Chemical, Cat No 12010) or a reference CRTH2 antagonist (10 μM CAY10471, Cayman Chemical, Cat No 10006735).
Determination of the affinity of a test compound is calculated by subtraction of the non-specific binding (NSB) from the total binding (Bo) or the binding in the presence of the test compound (B) at a given compound concentration. […] The Bo−NSB value is set to 0% inhibition.
In general terms: Loss of bound radioactivity is the signal in a displacement assay; it reports binding, not function.

As a reminder, the Ki is a measure of affinity in units of concentration, obtained from inhibition or displacement. A lower Ki goes with a stronger hold on the target. Regarding `CCc1nn(Cc2ccc(NC(=O)C3[C@H]4C[C@@H]5C[C@@H](C[C@H]3C5)C4)cc2)c(CC)c1CC(=O)O` (stereo partly shown) [Example 2.33], the inhibition constant Ki is 0.8 nM. That is a sub-nanomolar value.

`CCc1nn(Cc2ccc(OCc3cccc(C)c3)cc2)c(CC)c1CC(=O)O` [Example 13.13] displayed a Ki of 49.9 nM.

With `Cc1nn(Cc2ccc(NC(=O)CCc3ccccc3)cc2)c(C)c1CCC(=O)O` [Example 8.5], the Ki was 427 nM.

As for `Cc1nn(Cc2ccc(NCc3ccc(C(F)(F)F)cc3)cc2)c(C)c1CC(=O)O` [Example 6.3], the inhibition constant Ki amounted to 261 nM. This Ki is about 1.6-fold lower than that of the molecule before.

Consider `O=C(O)Cc1c(-c2ccccc2)nn(Cc2ccc(NC(=O)c3ccc(Cl)cc3)cc2)c1-c1ccccc1` [Example 2.43], for which the inhibition constant Ki is 17.4 nM.

Turning to `Cc1c(CC(=O)O)cnn1Cc1ccc(NC(=O)c2ccc3ccccc3c2)cc1` [Example 2.55], the Ki was determined as 21.6 nM.

As for `Cc1nn(Cc2ccc(COc3ccccc3)cc2)c(C)c1CC(=O)O` [Example 14.3], the Ki is 742 nM.

`Cc1nn(Cc2ccc(NC(=O)c3ccc4ccccc4c3)cc2F)c(C)c1CC(=O)O` [Example 7.20] had a Ki of 2.2 nM.

In turn, `CCc1nn(Cc2ccc([S+]([O-])Cc3ccc(Cl)c(Cl)c3)cc2)c(CC)c1CC(=O)O` (stereo not shown) [Example 19.3] registered a Ki of 12.2 nM.

`Cc1nn(Cc2ccc(NC(=O)c3cccc4c3CCCC4)cc2)c(C)c1CC(=O)O` [Example 1.29] had an inhibition constant (Ki) of 2.5 nM.

Consider `CCc1nn(Cc2ccc(C(=O)NCc3ccc(Cl)c(Cl)c3)cc2)c(CC)c1CC(=O)O` [Example 9.18], for which the inhibition constant Ki is 24.9 nM. This Ki lies about 10-fold higher than the previous one.

As for `Cc1nn(Cc2ccc(CS(=O)(=O)c3ccc(Cl)c(Cl)c3)cc2)c(C)c1CC(=O)O` [Example 16.6], the affinity, expressed as Ki, was 853 nM.

As to `Cc1nn(Cc2ccc(NCc3ccc(Cl)cc3)cc2)c(C)c1CC(=O)O` [Example 6.1], the inhibition constant Ki turned out to be 438 nM.

On to `Cc1nn(Cc2ccc(NC(=O)CCc3ccccc3)cc2)c(C)c1CC(=O)O` [Example 1.10], for which affinity was put at a Ki of 7.4 nM.

As to `CCc1nn(Cc2ccc(C(=O)NCc3ccc(Cl)c(C(F)(F)F)c3)cc2)c(CC)c1CC(=O)O` [Example 9.19], the Ki was found to be 30.5 nM.

`Cc1nn(Cc2ccc(NC(=O)c3ccc(Cl)cc3)cc2)c(C)c1CC(=O)O` [Example 1.6] came in with an inhibition constant (Ki) of 3.5 nM.

In turn, `Cc1nn(Cc2ccc(NC(=O)c3ccc(Cl)cc3)cc2Cl)c(C)c1CC(=O)O` [Example 7.6] gave an inhibition constant Ki of 1.2 nM.

In turn, `O=C(O)Cc1c(-c2ccccc2)nn(Cc2ccc(NC(=O)c3ccc(C(F)(F)F)cc3)cc2)c1-c1ccccc1` [Example 2.45] displayed an inhibition constant Ki of 8.9 nM.

`CCCc1c(C)cccc1C(=O)Nc1ccc(Cn2nc(CC)c(CC(=O)O)c2CC)cc1` [Example 2.27] yielded an inhibitory constant (Ki) of 4.3 nM.

The molecule `CCc1nn(Cc2ccc(NC(=O)c3ccccc3)cc2)c(CC)c1CC(=O)O` [Example 2.3] showed a Ki of 3.4 nM.

`CCc1nn(Cc2ccc(NC(=O)OCc3ccccc3Br)cc2)c(CC)c1CC(=O)O` [Example 3.11]: the affinity corresponds to a Ki of 3.5 nM.

In the case of `CCc1nn(Cc2ccc(C(=O)Nc3ccc(Cl)c(C(F)(F)F)c3)cc2)c(CC)c1CC(=O)O` [Example 9.13], affinity was put at a Ki of 0.9 nM.

`CCc1c(CC(=O)O)cnn1Cc1ccc(NC(=O)c2ccc3ccccc3c2)cc1` [Example 2.59] displayed a Ki of 17.4 nM.

Take `Cc1nn(Cc2ccc(NC(=O)C3[C@H]4C[C@@H]5C[C@@H](C[C@H]3C5)C4)cc2)c(C)c1CC(=O)O` (stereo partly shown) [Example 1.34]: the affinity, expressed as Ki, was 4 nM.

In turn, `Cc1nn(Cc2ccc(NCc3ccccc3)cc2)c(C)c1CC(=O)O` [Example 6.2] yielded an inhibition constant (Ki) of 311 nM.

Molecule `Cc1nn(Cc2ccc(NC(=O)c3ccc(Cl)c(Cl)c3)cc2)c(-c2ccccc2)c1CC(=O)O` [Example 2.10] yielded a Ki of 0.8 nM.

In turn, `Cc1nn(Cc2ccc(C(=O)Nc3ccc(Cl)c(Cl)c3)cc2)c(C)c1CC(=O)O` [Example 9.3] registered a Ki of 8.7 nM.

The molecule `Cc1nn(Cc2ccc(NC(=O)c3ccc4ccccc4c3)cc2)c(C)c1CC(=O)O` [Example 1.7] returned a Ki of 2.5 nM.

As to `Cc1nn(Cc2ccc(NC(=O)C(C)C)cc2)c(C)c1CC(=O)O` [Example 1.32], the Ki is 32.5 nM.

As for `Cc1nn(Cc2ccc(COc3ccc(Cl)c(Cl)c3)cc2)c(C)c1CC(=O)O` [Example 14.2], the Ki was found to be 43 nM. This Ki and that of the molecule before are within 1.5-fold of each other.

In the case of `CCc1nn(Cc2ccc(C(=O)Nc3ccc(Cl)c(F)c3)cc2)c(CC)c1CC(=O)O` [Example 9.11], the Ki came out at 7.1 nM. This Ki is about 6.1-fold lower than that of the molecule before.

`CCc1nn(Cc2ccc(NC(=O)c3ccc(Cl)cc3)cc2)c(CC)c1CC(=O)O` [Example 2.5] registered a Ki of 0.75 nM.

For `Cc1cc(NC(=O)c2ccc3ccccc3c2)ccc1Cn1nc(C)c(CC(=O)O)c1C` [Example 7.5], the inhibition constant (Ki) is 0.3 nM.

Take `Cc1nn(Cc2ccc(NC(=O)c3ccc(C(F)(F)F)cc3)cc2)c(-c2ccccc2)c1CC(=O)O` [Example 2.9]: the Ki was found to be 1.8 nM.

`Cc1cc2ccccc2cc1C(=O)Nc1ccc(Cn2nc(C)c(CC(=O)O)c2C)cc1` [Example 1.25] returned an inhibitory constant (Ki) of 3.1 nM.

Molecule `Cc1nn(Cc2ccc(NC(=O)c3ccc(C(F)(F)F)cc3)cc2)c(C)c1CCC(=O)O` [Example 8.2] showed a Ki of 125 nM.

Turning to `CCc1nn(Cc2ccc(C(=O)Nc3ccc(F)c(Cl)c3)cc2)c(CC)c1CC(=O)O` [Example 9.12], the affinity, expressed as Ki, was 4.8 nM. Compared with the last molecule, the Ki is about 26-fold lower.

Consider `Cc1nn(Cc2ccc(NC(=O)c3ccc(Cl)cc3Br)cc2)c(C)c1CC(=O)O` [Example 1.28], for which the inhibitory constant (Ki) turned out to be 12.4 nM.

`COc1ccc(C(=O)Nc2ccc(Cn3nc(C)c(CC(=O)O)c3C)cc2)cc1` [Example 1.5] had a Ki of 12.9 nM.

In turn, `CCc1nn(Cc2ccc(OCc3ccc(OC(F)(F)F)c(Cl)c3)cc2)c(CC)c1CC(=O)O` [Example 13.11] displayed a Ki of 48.8 nM.

Regarding `Cc1nn(Cc2ccc(C#Cc3ccc(C(F)(F)F)cc3)cc2)c(C)c1CC(=O)O` [Example 12.1], the affinity corresponds to a Ki of 127 nM.

For the molecule `Cc1nn(Cc2ccc(CSc3ccc(C(F)(F)F)cc3)cc2)c(C)c1CC(=O)O` [Example 16.1], the inhibitory constant (Ki) was 992 nM. Against the preceding molecule, the Ki is about 7.8-fold higher.

As for `CCc1nn(Cc2ccc(NC(=O)c3cccc(Cl)c3Cl)cc2)c(CC)c1CC(=O)O` [Example 2.20], the affinity corresponds to a Ki of 13.9 nM.

`Cc1nn(Cc2ccc(NC(=O)c3ccc(Cl)c(Cl)c3)cc2F)c(C)c1CC(=O)O` [Example 7.18] showed a Ki of 2.4 nM.

`Cc1nn(Cc2ccc(NC(=O)/C=C/c3ccccc3)cc2Cl)c(C)c1CC(=O)O` [Example 7.11] registered an inhibitory constant (Ki) of 0.9 nM. This Ki lies about 2.7-fold lower than the previous one.

Regarding `CCc1nn(Cc2ccc(NC(=O)c3ccc(C)cc3C)cc2)c(CC)c1CC(=O)O` [Example 2.15], the affinity corresponds to a Ki of 1.4 nM.

Take `Cc1c(CC(=O)O)c(-c2ccccc2)nn1Cc1ccc(NC(=O)c2ccc(C(F)(F)F)cc2)cc1` [Example 2.11]: the Ki was 1.2 nM.

On to `Cc1nn(Cc2ccc(NC(=O)C3CCCCC3)cc2)c(C)c1CC(=O)O` [Example 1.33], for which the Ki turned out to be 29.8 nM.

`Cc1nn(Cc2ccc(NC(=O)OCc3ccccc3)cc2F)c(C)c1CC(=O)O` [Example 3.14] displayed a Ki of 8.9 nM. Compared with the last molecule, the Ki is about 3.3-fold lower.

`Cc1cc(Cl)ccc1C(=O)Nc1ccc(Cn2nc(C)c(CCC(=O)O)c2C)cc1` [Example 8.1] came in with a Ki of 1660 nM.

In the case of `Cc1ccc(C(=O)Nc2ccc(Cn3nc(C)c(CC(=O)O)c3C)c(Cl)c2)c(C)c1` [Example 7.12], the Ki came out at 4.7 nM.

In the case of `Cc1nn(Cc2ccc(NC(=O)c3ccc(C(F)(F)F)cc3)cc2)c(C)c1CC(=O)O` [Example 1.1], the affinity corresponds to a Ki of 2.9 nM.

The record behind these values is patent US20140148484A1, “PYRAZOLE COMPOUNDS FOR TREATING HAIRLOSS” (Boehringer Ingelheim International GmbH, priority 2012, published 2014).
